# Measured values from publication PMC6270924, “A New Urease Inhibitor from Viola betonicifolia” (Molecules, 2014).
# Target: jack bean urease (Canavalia ensiformis, UniProt P07374)
# Experiment: urease inhibition by indophenol (Weatherburn) ammonia assay; Lineweaver-Burk, secondary replot and Dixon plot kinetics (IC50 […])
# Format: biochemical
# jack bean urease, sequence (P07374 whole entry, looked up): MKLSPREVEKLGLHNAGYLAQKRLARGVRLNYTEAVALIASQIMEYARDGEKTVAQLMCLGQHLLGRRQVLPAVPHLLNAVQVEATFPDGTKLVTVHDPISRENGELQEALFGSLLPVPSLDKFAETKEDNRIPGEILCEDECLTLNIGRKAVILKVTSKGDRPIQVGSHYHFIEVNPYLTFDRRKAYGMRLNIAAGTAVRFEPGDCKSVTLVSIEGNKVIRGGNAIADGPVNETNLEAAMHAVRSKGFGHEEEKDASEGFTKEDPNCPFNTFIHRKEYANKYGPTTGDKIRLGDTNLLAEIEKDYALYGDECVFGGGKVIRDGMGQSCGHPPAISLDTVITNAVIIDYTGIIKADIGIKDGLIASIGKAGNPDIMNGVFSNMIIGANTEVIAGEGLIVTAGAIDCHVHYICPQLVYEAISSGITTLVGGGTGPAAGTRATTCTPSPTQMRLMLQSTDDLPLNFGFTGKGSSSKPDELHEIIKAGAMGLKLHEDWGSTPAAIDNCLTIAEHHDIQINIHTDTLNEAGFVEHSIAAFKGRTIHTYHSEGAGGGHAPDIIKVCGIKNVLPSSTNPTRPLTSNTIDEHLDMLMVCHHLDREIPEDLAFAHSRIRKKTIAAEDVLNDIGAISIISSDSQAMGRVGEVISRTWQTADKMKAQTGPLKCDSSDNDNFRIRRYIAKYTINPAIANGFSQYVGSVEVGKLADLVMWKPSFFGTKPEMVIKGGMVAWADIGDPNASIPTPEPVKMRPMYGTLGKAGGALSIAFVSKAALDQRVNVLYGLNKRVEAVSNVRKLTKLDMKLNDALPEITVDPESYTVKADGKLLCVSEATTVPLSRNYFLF
compound,measurement,value
"C=C[C@@H](C1=CC(=O)C=C(OC)C1=O)c1ccccc1 [compound 1, 3-methoxydalbergione]",Ki,138.16 ± 0.06 µM
